Measurements reported in US20040058357A1 (priority 2003, published 2004).

Assays:
hippocampal slices = type: cell-based, mice
PC12 cells = type: cell-based
AChE [1] = type: cell-based
AChE [2] = settings: rat, in vivo
AChE-S mRNA = settings: rat, in vivo
AChE [3] = settings: rat, in vivo; remark: listed apart in the source

NC(CCCP(=O)(O)O)C(=O)O (stereo not drawn) [APV, aminophosphonopentanoic acid]
Effect on the evoked pfp (hippocampal slices): blocked

CN1[C@@H]2CC[C@H]1C[C@@H](OC(=O)C(CO)c1ccccc1)C2 (stereo partly drawn) [atropine]
Block of the evoked response (hippocampal slices): over 90%
Reversal of the physostigmine-induced response (hippocampal slices): 70%

C[C@]12C[C@H](O)[C@H]3[C@@H](CCC4=CC(=O)CC[C@@]43C)[C@@H]1CC[C@@H]2C(=O)CO [corticosterone]
Increase in labeling intensities of both AChE splice variants versus vehicle-treated cells (PC12 cells): 30-50%
Increase in acetylthiocholine hydrolytic capacity of AChE (AChE [1]): 25±14%

CNC(=O)Oc1ccc2c(c1)[C@]1(C)CCN(C)[C@@H]1N2C [physostigmine]
Increase in amplitude of evoked population spikes, mean (hippocampal slices): 42±15%
Increase in amplitude of evoked population spikes, range (hippocampal slices): 20-80%
Increase over baseline in population spike amplitudes relative to non-stressed animals (hippocampal slices): 12 fold

CN1CCN(CC(=O)N2c3ccccc3C(=O)Nc3cccnc32)CC1 [pirenzepine]
Cortical DFP-induced decrease in AChE activity under pirenzepine pre-treatment (AChE [2]): 44 % of control
Hippocampal regaining of AChE activity after DFP under pirenzepine pre-treatment (AChE [2]): 63 % of control
AChE-S elevation by vehicle injection-induced stress under muscarinic blocker (AChE-S mRNA): 39.1±5.2 AFU
AChE-S mRNA labeling, change in words (AChE-S mRNA): somewhat lower increase
DFP-induced AChE-S expression (AChE-S mRNA): 30.4±4.9 AFU
Effect on AChE-S or -R levels after 24 hours (AChE-S mRNA): did not show any effect
DFP-induced increase of G1:G4 ratio under co-injection (AChE [3]): prevented

CN1[C@@H]2C[C@@H](OC(=O)[C@H](CO)c3ccccc3)C[C@H]1[C@@H]1O[C@@H]12 [scopolamine]
Effect on the DFP-induced decrease in AChE activities (AChE [2]): no significant effect
AChE-S elevation by vehicle injection-induced stress under muscarinic blocker (AChE-S mRNA): 39.6±3.3 AFU
AChE-S mRNA labeling, change in words (AChE-S mRNA): conspicuous increases
DFP-induced AChE-S expression (AChE-S mRNA): 35.1±10 AFU
Effect on AChE-S or -R levels after 24 hours (AChE-S mRNA): did not show any effect
DFP-induced increase of G1:G4 ratio under co-injection (AChE [3]): prevented
